# Test results published in patent US20110250184A1, “METHODS FOR DETERMINING EFFICACY OF A THERAPEUTIC REGIMEN AGAINST DELETERIOUS EFFECTS OF CYTOTOXIC AGENTS IN HUMAN” (priority 2008, published 2011).
# Entries after “also recorded” stand apart in the source; their conditions may differ.
# Assays:
# [1] = system: bone marrow of irradiated mice; assay: In vivo radiation protection assay, bone marrow colony forming units of irradiated mice; parameters: species or system C3H/HEJ mice; details: for Differential colony counts, GM / Differential colony counts, Granulocytes / Differential colony counts, Macrophages / Differential colony counts, Total CFU: 500 mg/kg sc -24 h and -15 min
# Method: (§1) FIG. 4. ON 01210.Na protects the bone marrow of irradiated mice. A. Mice were injected with 500 mg/kg of ON 01210.Na formulated in 1% Polysorbate 80/K-phosphate buffer or vehicle alone by sc injections minus 24 hrs and minus 15 minutes before 5.5 Gy of whole body ionizing radiation treatment. Whole blood was collected on the indicted days and WBC counts were performed following RBC lysis. The data is plotted as the average of three mice per group +/−SEM (N:3×3=9 plates). B. Pictures of representative plates. […] C. White blood cell counts. Whole blood was collected on the indicted days and WBC counts were performed following RBC lysis. The data is plotted as the average of 3 mice per group±SEM (N=3).
# Since survival of animals after radiation exposure depends largely on the protection of the hematopoietic system, the effect of ON 01210.Na treatment on hematopoietic cell survival was investigated using various schedules before radiation exposure. The radioprotection of hematopoietic cells by ON 01210.Na was studied in an in vivo assay using a sub lethal dose of radiation. C3H/HEJ mice were treated with ON 01210.Na following various schedules in order to determine the optimal dose and schedule of ON 01210.Na for maximum protection of the hematopoietic system in mice.
# as §1, with “A.” for “FIG. 4. ON 01210.Na protects the bone marrow of irradiated mice. A.”, “group+/−SEM” for “group +/−SEM”, “(N=3). Lineage specific protection was studied by identifying and tabulating three lineages, granulocytes, macrophages and granulocyte-macrophages (GM).” for “(N=3).”
# In order to determine the optimal schedule of ON 01210.Na treatment for maximum protection of the bone marrow, bone marrow protection of mice injected with a single dose of ON 01210.Na at minus 15 minutes or minus 4 hours was compared with mice injected with two doses described above. The most efficient protection of the bone marrow was found when the mice were injected at minus 24 hours and minus 15 minutes before radiation exposure. […] These experiments imply that a single injection just before exposure will protect and increase the recovery of bone marrow cells after radiation exposure.
# [2] = system: human umbilical vein endothelial cells; assay: In vitro clonogenic survival assay, endothelial cells; format: cell-based
# [3] = system: New Zealand white rabbits; assay: Survival studies in rabbits after lethal doses of radiation; format: in vivo; details: 120 mg/kg at 24 hours and 15 minutes before lethal doses of radiation
# Method: Unlike in the mouse studies, clear evidence of improved repopulation of various hematologic cell lineages was not evident in these preliminary studies. Both solution and suspension formulations were tested.
# [4] = system: HFL-1 (normal diploid lung fibroblasts) cells; assay: Clonogenic assay, radioprotection of HFL-1 cells against ionizing radiation; format: cell-based, human
# From the text: FIG. 1. Protection of HFL-1 cells against Ionizing Radiation (IR) by ON 01210.Na. Following drug treatment and radiation exposure, cells were re-plated and the number of colonies from each plate was enumerated three weeks later. A. Relation of concentration of ON 01210.Na to number of surviving colonies. B. Stained clonogenic assay plates.
# A clonogenic assay was used to measure radioprotection of ON 01210.Na on cultured human cells. Treatment of HFL-1 (normal diploid lung fibroblasts) cells with 2-20 μM of ON 01210.Na for 24 hours prior to cytotoxic levels of Ionizing Radiation (IR) (10 Gy) provided 3.3-4.7 fold protection in a dose-dependent manner (see FIG. 1A).HFL-1 cells, were treated with ON 01210.Na at final concentrations ranging from 2.0 to 20.0 μM. In a second experiment, cells were also treated with the drug for 24 h, but the drug was applied 4 h after irradiation.
# Following drug treatment and radiation exposure, cells were re-plated and the number of colonies from each plate was enumerated three weeks later. A. Relation of concentration of ON 01210.Na to number of surviving colonies. B. Stained clonogenic assay plates.
structure (smiles),measurement,setting,value
"O=C([O-])c1ccc(/C=C/S(=O)(=O)Cc2ccc(Cl)cc2)cc1.[Na+] [ON 01210.Na, E-4-Carboxystyryl-4-chlorobenzylsulfone sodium salt]","Differential colony counts, GM","[1]; 5.5 Gy IR, day 4",8
same,"Differential colony counts, Granulocytes","[1]; 5.5 Gy IR, day 4",9
same,"Differential colony counts, Macrophages","[1]; 5.5 Gy IR, day 4",4
same,"Differential colony counts, Total CFU","[1]; 5.5 Gy IR, day 4",21
same,"Differential colony counts, GM","[1]; 5.5 Gy IR, day 7",9
same,"Differential colony counts, Granulocytes","[1]; 5.5 Gy IR, day 7",13
same,"Differential colony counts, Macrophages","[1]; 5.5 Gy IR, day 7",2
same,"Differential colony counts, Total CFU","[1]; 5.5 Gy IR, day 7",24
same,"Differential colony counts, GM","[1]; 5.5 Gy IR, day 12",16
same,"Differential colony counts, Granulocytes","[1]; 5.5 Gy IR, day 12",16
same,"Differential colony counts, Macrophages","[1]; 5.5 Gy IR, day 12",5
same,"Differential colony counts, Total CFU","[1]; 5.5 Gy IR, day 12",37
same,"Differential colony counts, GM","[1]; 5.5 Gy IR, day 18",72
same,"Differential colony counts, Granulocytes","[1]; 5.5 Gy IR, day 18",58
same,"Differential colony counts, Macrophages","[1]; 5.5 Gy IR, day 18",16
same,"Differential colony counts, Total CFU","[1]; 5.5 Gy IR, day 18",146
same,"Differential colony counts, GM","[1]; No IR, day 4",111
same,"Differential colony counts, Granulocytes","[1]; No IR, day 4",27
same,"Differential colony counts, Macrophages","[1]; No IR, day 4",9
same,"Differential colony counts, Total CFU","[1]; No IR, day 4",147
same,"Differential colony counts, GM","[1]; No IR, day 7",120
same,"Differential colony counts, Granulocytes","[1]; No IR, day 7",18
same,"Differential colony counts, Macrophages","[1]; No IR, day 7",5
same,"Differential colony counts, Total CFU","[1]; No IR, day 7",143
same,"Differential colony counts, GM","[1]; No IR, day 12",116
same,"Differential colony counts, Granulocytes","[1]; No IR, day 12",64
same,"Differential colony counts, Macrophages","[1]; No IR, day 12",14
same,"Differential colony counts, Total CFU","[1]; No IR, day 12",194
same,"Differential colony counts, GM","[1]; No IR, day 18",119
same,"Differential colony counts, Granulocytes","[1]; No IR, day 18",39
same,"Differential colony counts, Macrophages","[1]; No IR, day 18",39
same,"Differential colony counts, Total CFU","[1]; No IR, day 18",197
same,protection and recovery of the bone marrow,"[1]; 500 mg/kg sc -24 h and -15 min before 5.5 Gy whole body IR, sodium salt",significantly increased the recovery of the bone marrow; also recorded: significantly protected
same,Percent Colony Forming Units,"[1]; administration -15 min relative to IR exposure, day 4",9%
same,Percent Colony Forming Units,"[1]; administration -15 min relative to IR exposure, day 7",13%
same,Percent Colony Forming Units,"[1]; administration -15 min relative to IR exposure, day 12",17%
same,Percent Colony Forming Units,"[1]; administration -15 min relative to IR exposure, day 18",80%
same,Percent Colony Forming Units,"[1]; administration -4 h relative to IR exposure, day 4",6%
same,Percent Colony Forming Units,"[1]; administration -4 h relative to IR exposure, day 7",10%
same,Percent Colony Forming Units,"[1]; administration -4 h relative to IR exposure, day 12",12%
same,Percent Colony Forming Units,"[1]; administration -4 h relative to IR exposure, day 18",51%
same,Percent Colony Forming Units,"[1]; administration -24 h and -15 min relative to IR exposure, day 4",14%
same,Percent Colony Forming Units,"[1]; administration -24 h and -15 min relative to IR exposure, day 7",16%
same,Percent Colony Forming Units,"[1]; administration -24 h and -15 min relative to IR exposure, day 12",25%
same,Percent Colony Forming Units,"[1]; administration -24 h and -15 min relative to IR exposure, day 18",100%
same,macrophage colony number,[1]; mice injected without radiation exposure,slight increase
same,recovery of bone marrow versus vehicle,"[1]; single injection 4 hours prior to radiation exposure, sodium salt",did not show a significant advantage; also recorded: not significantly increased
same,protection from radiation exposure (clonogenic survival),[2],protected
same,survival relative to vehicle-treated animals,[3],survival benefit
same,fold protection (surviving colonies),"[4]; 2-20 μM for 24 hours prior to 10 Gy IR, dose-dependent",3.3-4.7 fold
same,number of cells per colony,[4]; ON 01210.Na treated group after IR,significant larger
same,protection from radiation exposure (clonogenic survival),[4]; human lung fibroblasts,protected
same,protection when cells treated post irradiation,"[4]; treated four hours post irradiation exposure, 24 h",significant protection
